This is an account of results in US20230135758A1, “[…] 1-ALPHA INHIBITORS AND USES THEREOF” (The Regents of the University of California, priority 2020, published 2023).

“Also recorded” adds a separate entry of the source. Read-outs that look alike come from different tables or passages of the source.

For one data set, the system named is Eμ-Myc/+ lymphoma cells. Kind of data set: Eμ-Myc mouse lymphoma model. Type of data set: in vivo. The protocol: Mouse studies were approved by the University of California, San Francisco Institutional Animal Care and Use Committee (IACUC). Eμ-Myc/+ mice were purchased from the Jackson Laboratory. For the Eμ-Myc tumor model, allograft mice were generated using spontaneous lymph node tumors derived from Eμ-Myc mice. 5×10^5 Eμ-Myc/+ lymphoma cells were injected via the tail vein into eight-week-old male C57BL/6J mice. Seven days after lymphoma cell injection, mice were randomized to receive vehicle (10% EtOH/Kolliphor EL in water, n=5 mice) or (S,R)-A3 (n=5 mice) by intraperitoneal injection every other day (3 times per week) until the endpoint based on the IACUC-approved protocol. Eμ-Myc mice in the (S,R)-A3 treatment arm received (S,R)-A3 at a dose of 2 mg/kg for the first 21 days and 1-2 mg/kg after treatment day 21 according to their body weights (BW): BW>26 g, 2 mg/kg; BW 25-26 g, 1.5 mg/kg; BW 24-25 g, 1 mg/kg).
We next tested the effect of (S,R)-A3 in a preclinical mouse model of B-cell lymphoma using an intermittent dosing regimen (QOD×3, every other day, 3 doses per week via intraperitoneal injection). Eμ-Myc/+ mice are a well-characterized mouse lymphoma model that overexpress MYC under the transcriptional control of the IgH enhancer element. These mice recapitulate the genetic lesion underlying Burkitt's Lymphoma. Eμ-Myc/+ lymphoma cells were injected via the tail vein into eight-week-old male C57BL/6J mice. Seven days after lymphoma cell injection, mice were randomized to receive vehicle or (S,R)-A3 by intraperitoneal injection (QOD×3, n=5 mice/treatment arm).

In data set [1] the test system is HCT116, H929, and MM1S cells. Kind of data set: Proliferation assay (transient exposure, followed by washout), CellTiter Glo. It counts as cell-based. The following applies: for antiproliferative activity after transient exposure and washout: 1 h or 4 h exposure, stringent washout, 72 h compound-free media, HCT116, H929, MM1S. The protocol:
0.6×10^6 cells were seeded in 3 mL complete growth media per well in 6-well plates. […] For adherent cells, growth media was carefully removed, cells were washed with warm PBS twice (2×short wash), and followed by 5 min incubation in warm media at 37° C. (long wash). After repeating the “short-long” washing cycle 3 times, cells were resuspended in warm media and plated in flat-bottom 96-well plates (100 uL/well) at equal cell number. For suspension cells, cells were collected and spun down at 300×g for 3 min. Supernatant was carefully removed, cells were then washed with warm PBS twice (2× short wash), followed by 5 min incubation in warm media at 37° C. (long wash). After repeating the “short-long” washing cycle 3 times, cells were resuspended in warm media and plated in flat-bottom 96-well plates (100 uL/well) at equal cell number. After the indicated times post-washout, CellTiter Glo (Promega, Madison, Wis.) was used to asses the cell viability per the manufacturer's instructions. Briefly, after adding 100 uL CellTiter Glo reagent to each well, the plate was rocked at room temperature for 5-10 min, and luminescence intensity was measured. Proliferation curves were generated by first normalizing luminescence intensity in each well to the average T=0 value for each compound. Normalized luminescence intensity was plotted in GraphPad Prism (triplicate values, mean±SD).
Background: In ATP-based viability assays light output follows the ATP content of the culture.

Data set [2] relates to HCT116, H929, and MM1S cells. Kind of data set: Proliferation assay (continuous exposure), 72 h, Alamar Blue. Type of data set: cell-based. Particulars: 72 h continuous. The procedure: To assess in vitro anticancer activity, HCT116, H929, and MM1S cells were treated continuously for 72 hours with increasing concentrations of (S,S)-A3, (S,R)-A3, or dA3 (cyclic peptide 4 (Carelli, Taunton, et al., eLife, 2015), here termed “dA3” (deoxy-A3)). Cell viability was then assessed using the Alamar Blue assay.

The test system of data set [3] is protein synthesis in HCT116 cells. Kind of data set: Protein synthesis inhibition assay (transient exposure, followed by washout), O-propargyl puromycin incorporation. Type of data set: cell-based. The following applies: 100 nM for 4 h, 24 h compound-free media. The procedure: HCT116 cells at 80% confluency in 24-well plates were incubated with compounds with at 100 nM for 4 hours at 37° C. O-propargyl-puromycin (30 uM final concentration) was then added, and the cells were incubated for 1 hour at 37° C. Media was carefully removed, cells were washed with warm PBS twice (2× short wash), followed by 5 min incubation in warm medium at 37° C. (long wash). After repeating the “short-long” washing cycle for 3 times, cells were then resuspended in warm media and incubated at 37° C. After the indicated time post-washout, media was removed, and cells were trypsinized, collected, and washed twice with ice-cold PBS before transferring to a 96-well V bottom plate. 100 uL Zombie Red (BioLegend, San Diego, Calif.) solution was added to each well and incubated for 30 min at RT in the dark. Cells were then washed with 2% FBS in PBS buffer before fixed with 200 uL of 4% PFA in PBS for 15 min on ice in dark. After washing the cells with 2% FBS in PBS buffer, 200 uL permeabilization buffer (3% FBS, 0.1% Saponin in PBS) was added to each well, and cells were incubated for 5 min at RT in the dark. Cells were then washed and resuspended in 25 uL permeabilization buffer. 100 uL click chemistry mix (50 mM HEPES pH=7.5, 150 mM NaCl, 400 uM TCEP, 250 uM TBTA, 5 uM CF405M-Azide (Biotium, Fremont, Calif.), 200 uM Cu2SO4) was added to each well, and cells were incubated at RT in dark. After the overnight incubation, cells were washed with permeabilization buffer followed by FACS buffer (2% FBS, 1% P/S, 2 mM EDTA, in PBS w/o Ca/Mg). Cells were then resuspended in 200 uL FACS buffer and filtered before FACS analysis (FACSCanto II, Becton Dickinson, Franklin Lakes, N.J.). Only single, live cells were analyzed (FlowJo), as judged by forward/side scattering and the absence of Zombie Red staining. Protein synthesis inhibition curves were generated by first normalizing intensity to the cycloheximide-treated (50 μg/mL for 1 h, maximum inhibition) and DMSO-treated control samples. Normalized intensity was plotted in GraphPad Prism.

Data set [4] has as its system eEF1A-mutant (A399V) HCT116 cells. Particulars: read-out: IC50, cell proliferation in eEF1A-mutant (A399V) cells; 72 h; AlamarBlue. Background: Resazurin is reduced to fluorescent resorufin, in cell work by metabolically active cells.
Protocol: Cell proliferation (% DMSO control) was quantified using AlamarBlue. […] Data points (% DMSO control) are mean values±SD (n=3).
Adherent cells were briefly trypsinized and repeatedly pipetted to produce a homogeneous cell suspension. 2,500 cells were seeded in 100 uL complete growth media per well in 96-well clear-bottom plates. Suspension cells were repeatedly pipetted to produce a homogeneous cell suspension. 10,000 cells were seeded in 100 uL complete growth media per well in 96-well clear-bottom plates. After allowing cells to grow/adhere overnight, cells were treated with 25 uL/well 5×drug stocks (0.1% DMSO final) and incubated for 72 hr. AlamarBlue (Life Technologies, Grand Island, N.Y.) was used to assess cell viability per the manufacturer's instructions. Briefly, 12.5 uL alamarBlue reagent was added to each well, and plates were incubated at 37° C. Fluorescence intensity was measured every 30 min to determine the linear range for each assay (Ex 545 nm, Em 590 nm, SPARK, Tecan Austria GmbH, Austria). Proliferation curves were generated by first normalizing fluorescence intensity in each well to the DMSO-treated plate average. Normalized fluorescence intensities were plotted in GraphPad Prism (GraphPad, La Jolla, Calif.), and IC50 values calculated from nonlinear regression curves. The reported IC50 values represent the average of at least three independent determinations (±SD).
The test system of data set [5] is protein synthesis in HCT116 cells. Kind of data set: Protein synthesis inhibition assay (continuous exposure), O-propargyl puromycin incorporation. Type of data set: cell-based. Particulars: 24 h treatment, 1 h OPP pulse, read-out: IC50, rate of protein synthesis. The protocol:
HCT116 cells at 80% confluency in 12-well plates were incubated with compounds with varying concentrations for 10 min or 24 hours at 37° C. After the indicated time, O-propargyl-puromycin (30 μM final concentration) was added, and the cells were incubated for 1 hour at 37° C. Subsequently, media was removed, and cells were trypsinized, collected, and washed twice with ice-cold PBS before transferring to a 96-well V bottom plate. 100 uL Zombie Red (BioLegend, San Diego, Calif.) solution was added to each well and incubated for 30 min at RT in dark. Cells were then washed with 2% FBS in PBS buffer before fixed with 200 uL of 4% PFA in PBS for 15 min on ice in dark. After washing the cells with 2% FBS in PBS buffer, 200 uL permeabilization buffer (3% FBS, 0.1% saponin in PBS) was added to each well, and the cells were incubated for 5 min at RT in the dark. Cells were then washed and resuspended in 25 uL permeabilization buffer. 100 uL click chemistry mix (50 mM HEPES pH=7.5, 150 mM NaCl, 400 uM TCEP, 250 uM TBTA, 5 uM CF405M-Azide (Biotium, Fremont, Calif.), 200 uM Cu2SO4) was added to each well, and cells were incubated at RT in the dark. […] Only single, live cells were analyzed (FlowJo), as judged by forward/side scattering and the absence of Zombie Red staining. […]

Data set [6] in a line: FIG. 14. The procedure: (§1) Table printed on a drawing sheet, FIG. 14
(§2) The patent's description of the figure: FIG. 14. SRA3 pharmacokinetic data. PK studies were performed in C57BL/6 mice
First reader's note: IP route is given in the head cell of the first column; the plot legend on the same sheet prints IP 2 mg/kg in mouse.

Data set [7] in a line: FIG. 14. The protocol: as §1, §2
First reader's note: IV route is given in the head cell of the first column; the plot legend on the same sheet prints IV 2 mg/kg in mouse.
The source holds these as a separate data set.

For another data set, the system named is HCT116 cells. Kind of data set: Cell viability, Alamar Blue, 24 h treatment. It counts as cell-based. Particulars: relative to DMSO controls. The procedure: 5,000 HCT116 cells were seeded in 100 μL complete growth media per well in 96-well plates.
Data set [8] has as its target eEF1A (Elongation Factor 1-alpha), wild type (UniProt P68104). Kind of data set: cell-based or functional assay.
[9] abbreviates: C57BL/6, mouse, in vivo, ip, 2 mg/kg.
The mark [10] stands for this setting: C57BL/6, mouse, in vivo, iv, 2 mg/kg.

eEF1A (Elongation Factor 1-alpha), wild type, sequence (P68104 2-462): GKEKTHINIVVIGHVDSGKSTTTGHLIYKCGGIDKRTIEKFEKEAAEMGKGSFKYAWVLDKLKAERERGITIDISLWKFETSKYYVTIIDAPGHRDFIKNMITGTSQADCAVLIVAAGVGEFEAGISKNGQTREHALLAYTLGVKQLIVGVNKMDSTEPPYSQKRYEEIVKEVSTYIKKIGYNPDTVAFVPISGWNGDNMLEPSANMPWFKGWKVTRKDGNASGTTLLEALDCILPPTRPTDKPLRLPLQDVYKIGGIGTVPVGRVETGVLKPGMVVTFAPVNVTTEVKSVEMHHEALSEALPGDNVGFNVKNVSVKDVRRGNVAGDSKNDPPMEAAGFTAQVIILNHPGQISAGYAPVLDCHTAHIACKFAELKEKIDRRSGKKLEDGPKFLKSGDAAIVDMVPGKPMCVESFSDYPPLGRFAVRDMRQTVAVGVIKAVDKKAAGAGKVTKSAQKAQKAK

For the compound `C=C[C@H](C)C[C@@H]1NC(=O)[C@H]([C@H](O)C(C)C)N(C)C(=O)[C@H](C)N(C)C(=O)[C@@H]([C@@H](C)CC)NC(=O)[C@@H]([C@H](O)C(C)C)NC(=O)[C@H]2CCCCN2C(=O)[C@H](C)N(C)C1=O` [(S,R)-A3], in the data set with Eμ-Myc/+ lymphoma cells (2 mg/kg (1-2 mg/kg after day 21) intraperitoneal, QOD×3), the “maximum BW loss” value is listed as below 8%. In the data set on Eμ-Myc/+ lymphoma cells (2 mg/kg (1-2 mg/kg after day 21) intraperitoneal, QOD×3, P=0.0027), the survival result is “significantly improved survival”. Further, in the data set on Eμ-Myc/+ lymphoma cells (2 mg/kg (1-2 mg/kg after day 21) intraperitoneal, QOD×3, start 7 days after cell injection), the tumor growth entry is “reduced tumor growth”. In addition, in the data set on Eμ-Myc/+ lymphoma cells (Eμ-Myc mouse model of B-cell lymphoma), the “efficacy in mouse lymphoma model” value was “efficacious”. Further, the “antiproliferative activity after transient exposure and washout” value in data set [1] is “profound and sustained loss of cell viability; also recorded: strong antiproliferative activity”. The “reduction of cell viability, continuous treatment” value in data set [2] was “low nanomolar concentrations”. In addition, the “recovery of protein synthesis after washout” value (“recovery of protein synthesis” for short) in data set [3] is “sustained, washout-resistant manner”.
With `C=C[C@H](C)C[C@@H]1NC(=O)[C@H]([C@@H](O)C(C)C)N(C)C(=O)[C@H](C)N(C)C(=O)[C@@H]([C@@H](C)CC)NC(=O)[C@@H]([C@H](O)C(C)C)NC(=O)[C@H]2CCCCN2C(=O)[C@H](C)N(C)C1=O` [(S,S)-A3], the “antiproliferative activity after transient exposure and washout” value in [1] is on record as “less efficacious”. In addition, the “reduction of cell viability, continuous treatment” value in data set [2] is listed as “low nanomolar concentrations”. The “recovery of protein synthesis” value in [3] was “partially recovered”.
Take `C=C[C@H](C)C[C@@H]1NC(=O)[C@H]([C@H](O)C(C)C)N(C)C(=O)[C@H](C)N(C)C(=O)[C@@H]([C@@H](C)CC)NC(=O)[C@@H]([C@H](O)C(C)C)NC(=O)[C@H]2CCCCN2C(=O)[C@H](C)N(C)C1=O` [SR-A3]: the “cell proliferation after washout” value in data set [1] (HCT116, 100 nM for 4 h, rigorous washout, 72-h washout period) is “nearly abolished”. Moreover, the IC50 is above 1000 nM in [4] and around 20 nM in data set [5]. Also, in [3], the “recovery of protein synthesis” value was “sustained inhibition”.
For orientation: Cmax means the peak of the concentration-time curve. Broadly, the MRT is the average time that molecules of a dose stay in the body. As usually defined, the half-life is how long it takes for the measured level to halve. Usually Vss stands for a proportionality between amount in the body and measured concentration, not a real space. In general, Vz refers to a proportionality between amount in the body and measured concentration, not a real space. Read a low Vz as little distribution into tissue. `C=C[C@H](C)C[C@@H]1NC(=O)[C@H]([C@H](O)C(C)C)N(C)C(=O)[C@H](C)N(C)C(=O)[C@@H]([C@@H](C)CC)NC(=O)[C@@H]([C@H](O)C(C)C)NC(=O)[C@H]2CCCCN2C(=O)[C@H](C)N(C)C1=O` [SRA3]: in the data set “FIG. 14 [6]”, the “AUCInf” value stood at 384 ng·h/mL, the “AUCInf/D” value is 192 kg·ng·h/mL/mg, the “AUClast” value was determined as 347 ng·h/mL and the “F (%)” value came out at 97.2%. The “tmax” value in the data set “FIG. 14 [6]” came to 0.583 h. In “FIG. 14 [6]” (setting [9]), the Cmax stood at 86.6 ng/mL, the MRT was 8.63 h and the half-life was 8.21 h. Also, in “FIG. 14 [7]”, the “AUCInf” value is 395 ng·h/mL, the “AUClast” value came to 367 ng·h/mL, the “CL” value was 87.2 mL/min/kg and the “Vss” value amounted to 42.0 L/kg. Besides, in the data set “FIG. 14 [7]”, the “Vz” value was found to be 52.7 L/kg. In “FIG. 14 [7]” (setting [10]), this compound showed a C0 of 204 ng/mL, an MRT of 7.97 h and a half-life of 6.79 h.
`C=C[C@H](C)C[C@@H]1NC(=O)[C@H]([C@H](O)C(C)C)N(C)C(=O)[C@H](C)N(C)C(=O)[C@@H]([C@H](C)CC)NC(=O)[C@@H]([C@H](O)C(C)C)NC(=O)[C@H]2CCCCN2C(=O)[C@H](C)N(C)C1=O` [WHY3179] had an IC50 in the data set on HCT116 cells of 6.3 nM.
The same measure, in the same setting: to `C=C[C@H](C)C[C@@H]1NC(=O)[C@H]([C@H](O)C(C)C)N(C)C(=O)[C@H](C)N(C)C(=O)[C@@H]([C@@H](C)CC)NC(=O)[C@@H]([C@H](O)C2CC2)NC(=O)[C@H]2CCCCN2C(=O)[C@H](C)N(C)C1=O` [WHY4014] belongs 14.8 nM.
For ternatin-4 (peptide), in data set [8], the cell proliferation rate after transient exposure (100 nM, 4 h) and washout, HCT116 cells, % of DMSO control (% of DMSO control) is 50; the protein synthesis rate 24 h after washout (100 nM for 4 h), HCT116 cells, % of DMSO control (% of DMSO control) amounted to 30; the rate of protein synthesis (OPP incorporation), HCT116 cells, 10 min treatment; potency relative to SR-A3 stood at 10 fold.
